# Measured values published in ChEMBL document CHEMBL4619786, “Discovery of Novel Resorcinol Dibenzyl Ethers Targeting the Programmed Cell Death-1/Programmed Cell Death-Ligand 1 Interaction as Potential Anticancer Agents” (J Med Chem, 2020).
# System: A549
# Experiment: Cytotoxicity against human A549 cells assessed as reduction in cell viability measured after 48 hrs by MTT assay
# Type: functional, cell-based
# Conditions: A549, 48 h
row,SMILES,IC50 [nM]
1,Cc1c(COc2cc(OCc3cccc(C#N)c3)c(CN3C[C@@H](O)C[C@@H]3CO)cc2Cl)cccc1-c1ccc2c(c1)OCCO2,4600

# System: B16-F10
# Experiment: Cytotoxicity against mouse B16/F10 cells assessed as reduction in cell viability measured after 48 hrs by MTT assay
# Type: functional, cell-based
# Conditions: B16-F10, 48 h
row,SMILES,IC50 [nM]
1,Cc1c(COc2cc(OCc3cccc(C#N)c3)c(CN3C[C@@H](O)C[C@@H]3CO)cc2Cl)cccc1-c1ccc2c(c1)OCCO2,2400

# Molecular target: Programmed cell death protein 1/Programmed cell death 1 ligand 1 (Homo sapiens, UniProt Q9NZQ7)
# Sequence (Q15116 whole entry): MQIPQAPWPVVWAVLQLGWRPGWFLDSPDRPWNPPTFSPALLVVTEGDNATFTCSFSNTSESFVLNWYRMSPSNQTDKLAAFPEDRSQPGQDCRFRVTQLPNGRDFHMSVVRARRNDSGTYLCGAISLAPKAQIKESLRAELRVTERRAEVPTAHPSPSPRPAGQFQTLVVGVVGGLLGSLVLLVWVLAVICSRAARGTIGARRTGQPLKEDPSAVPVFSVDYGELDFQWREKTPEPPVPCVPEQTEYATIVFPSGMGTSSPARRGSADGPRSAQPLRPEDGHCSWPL
# Sequence (Q9NZQ7 whole entry): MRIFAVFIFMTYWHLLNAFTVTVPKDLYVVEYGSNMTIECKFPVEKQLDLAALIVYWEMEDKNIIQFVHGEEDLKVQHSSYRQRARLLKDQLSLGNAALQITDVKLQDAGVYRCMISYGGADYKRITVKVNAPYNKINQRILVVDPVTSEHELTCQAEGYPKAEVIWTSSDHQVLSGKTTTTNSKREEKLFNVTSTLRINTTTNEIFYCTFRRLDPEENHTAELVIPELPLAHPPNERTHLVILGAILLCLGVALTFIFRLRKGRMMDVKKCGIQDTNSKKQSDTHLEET
# Experiment: Inhibition of human PD1/PDL1 protein-protein interaction by HTRF assay
# Type: protein-complex assay
# Conditions: not given
row,SMILES,IC50 [nM]
1,Cc1c(COc2cc(OCc3cccc(C#N)c3)c(CN3CCNCC3)cc2Cl)cccc1-c1ccc2c(c1)OCCO2,233
2,Cc1c(COc2cc(OCc3cccc(C#N)c3)c(CN3CC(C(=O)O)C3)cc2Cl)cccc1-c1ccc2c(c1)OCCO2,14.5
3,CCN1CCN(Cc2cc(Cl)c(OCc3cccc(-c4ccc5c(c4)OCCO5)c3C)cc2OCc2cccc(C#N)c2)CC1,711
4,Cc1c(COc2cc(OCc3cccc(C#N)c3)c(CN3CC[C@@H](C(=O)O)C3)cc2Cl)cccc1-c1ccc2c(c1)OCCO2,15.2
5,Cc1c(COc2cc(OCc3cccc(C#N)c3)c(CN3C[C@@H](O)C[C@H]3C(=O)O)cc2Cl)cccc1-c1cccnc1,> 100
6,CC(=O)N1CCN(Cc2ccc(O)c(C(=O)/C=C/c3cccc(-c4ccc5c(c4)OCCO5)c3C)c2)CC1,> 20000
7,CC(=O)N1CCN(Cc2ccc(O)c(C(=O)/C=C/c3cccc(-c4ccccc4)c3C)c2)CC1,14400
8,CC(=O)N1CCN(Cc2ccc3oc(-c4cccc(-c5ccccc5)c4)cc(=O)c3c2)CC1,> 10000
9,Cc1c(COc2cc(OCc3cccc(C#N)c3)c(CN3CCC(O)C3)cc2Cl)cccc1-c1ccccc1 (stereo unspecified),10 to 100
10,CC(=O)N1CCN(Cc2cc(Cl)c(OCc3cccc(-c4ccc5c(c4)OCCO5)c3C)cc2OCc2cccc(C#N)c2)CC1,408
11,Cc1c(COc2cc(OCc3cccc(C#N)c3)c(CN3CCN(C)CC3)cc2Cl)cccc1-c1ccc2c(c1)OCCO2,225
12,Cc1c(COc2cc(OCc3cccc(C#N)c3)c(CN3C[C@@H](O)C[C@@H]3CO)cc2Cl)cccc1-c1ccc2c(c1)OCCO2,11.1
13,Cc1c(/C=C/C(=O)c2cc(CN3CCN(C4CC4)CC3)ccc2O)cccc1-c1ccccc1,> 20000
14,CC(=O)N1CCN(Cc2ccc(O)c(C(=O)/C=C/c3cccc(-c4ccccc4)c3)c2)CC1,> 20000
15,Cc1c(COc2cc(OCc3cccc(C#N)c3)c(CN3C[C@@H](O)C[C@H]3C(=O)O)cc2Cl)cccc1-c1ccncc1,> 100
16,Cc1c(COc2cc(OCc3cccc(C#N)c3)c(CN3CCN(C(=O)OC(C)(C)C)CC3)cc2Cl)cccc1-c1ccc2c(c1)OCCO2,> 1000
17,Cc1c(-c2ccccc2)cccc1-c1cc(=O)c2cc(CN3CCN(CC4CC4)CC3)ccc2o1,> 10000
18,Cc1c(COc2ccc3cc(CN[C@@H](CO)C(=O)O)ccc3c2)cccc1-c1ccc2c(c1)OCCO2,> 10000
19,CCN1CCN(Cc2ccc(O)c(C(=O)/C=C/c3cccc(-c4ccccc4)c3C)c2)CC1,14600
20,Cc1c(COc2cc(OCc3cccc(C#N)c3)c(CN3C[C@@H](O)C[C@@H]3CO)cc2Cl)cccc1-c1ccccc1,10 to 100
21,Cc1c(COc2cc(OCc3cccc(C#N)c3)c(CNCCN(C)C)cc2Cl)cccc1-c1ccc2c(c1)OCCO2,26.3
22,Cc1c(COc2cc(OCc3cccc(C#N)c3)c(CN3CC[C@H](C(=O)O)C3)cc2Cl)cccc1-c1ccccc1,10 to 100
23,Cc1c(COc2cc(OCc3cccc(C#N)c3)c(CN3C[C@@H](O)C[C@H]3C(=O)O)cc2Cl)cccc1-c1cncnc1,> 100
24,c1cc2c(cc1[C@H]1OC[C@H]3[C@@H]1CO[C@@H]3c1ccc3c(c1)OCO3)OCO2 [SESAMIN],> 100000
25,Cc1c(COc2cc(OCc3cccc(C#N)c3)c(CN[C@H](C(=O)O)[C@H](C)O)cc2Cl)cccc1-c1ccccc1,14.1
26,Cc1c(COc2cc(OCc3cccc(C#N)c3)c(CN[C@H](C(=O)O)[C@@H](C)O)cc2Cl)cccc1-c1ccccc1,9

row,SMILES,IC50 [nM]
1,Cc1c(COc2cc(OCc3cccc(C#N)c3)c(CN3CCCC[C@@H]3C(=O)O)cc2Cl)cccc1-c1ccncc1,> 100
2,Cc1c(COc2cc(OCc3cccc(C#N)c3)c(CN[C@H](CO)C(=O)O)cc2Cl)cccc1-c1cccnc1,10 to 100
3,Cc1c(COc2cc(OCc3cccc(C#N)c3)c(CNCCN(C)C)cc2Cl)cccc1-c1ccccc1,10 to 100
4,Cc1c(COc2cc(OCc3cccc(C#N)c3)c(CN3CCCCC3C(=O)O)cc2Cl)cccc1-c1ccncc1 (stereo unspecified),> 100
5,Cc1c(COc2cc(OCc3cccc(C#N)c3)c(CN3CC(O)C(CO)C3)cc2Cl)cccc1-c1ccc2c(c1)OCCO2 (stereo unspecified),16.7
6,Cc1c(COc2cc(OCc3cccc(C#N)c3)c(CN3CCN(C4CC4)CC3)cc2Cl)cccc1-c1ccc2c(c1)OCCO2,409
7,Cc1c(COc2ccc3cc(CNC(C)(C)C(=O)O)ccc3c2)cccc1-c1ccccc1,> 10000
8,Cc1c(COc2ccc3cc(CN4C[C@@H](O)C[C@H]4C(=O)O)ccc3c2)cccc1-c1ccc2c(c1)OCCO2,> 10000
9,Cc1c(COc2cc(OCc3cccc(C#N)c3)c(CN3CC(O)C3)cc2Cl)cccc1-c1ccc2c(c1)OCCO2,30.4
10,Cc1c(COc2cc(OCc3cccc(C#N)c3)c(CN3CC(C)(O)C3)cc2Cl)cccc1-c1ccc2c(c1)OCCO2,10 to 100
11,Cc1c(COc2cc(OCc3cccc(C#N)c3)c(CN3CC[C@H](O)C3)cc2Cl)cccc1-c1ccccc1,10 to 100
12,Cc1c(COc2cc(OCc3cccc(C#N)c3)c(CN3CC[C@@H](O)C3)cc2Cl)cccc1-c1ccc2c(c1)OCCO2,14.9
13,Cc1c(COc2cc(OCc3cccc(C#N)c3)c(CN3CC[C@H](O)C3)cc2Cl)cccc1-c1ccc2c(c1)OCCO2,27.5
14,Cc1c(COc2cc(OCc3cccc(C#N)c3)c(CN3C[C@H](O)[C@@H](F)C3)cc2Cl)cccc1-c1ccccc1,> 100
15,Cc1c(COc2cc(OCc3cccc(C#N)c3)c(CN[C@@H](CO)C(=O)O)cc2Cl)cccc1-c1ccncc1,> 100
16,Cc1c(COc2ccc3cc(CNCCN)ccc3c2)cccc1-c1ccccc1,> 10000
17,Cc1c(COc2cc(OCc3cccc(C#N)c3)c(CNC(C)(C)C(=O)O)cc2Cl)cccc1-c1ccc2c(c1)OCCO2,25.2
18,CCN1CCN(Cc2ccc3oc(-c4cccc(-c5ccccc5)c4C)cc(=O)c3c2)CC1,> 10000
19,CC(=O)NCCNCc1ccc2cc(OCc3cccc(-c4ccccc4)c3C)ccc2c1,> 10000
20,Cc1c(COc2cc(OCc3cccc(C#N)c3)c(CN3CC(O)C3)cc2Cl)cccc1-c1ccccc1,> 100
21,CC(=O)N1CCN(Cc2ccc3oc(-c4cccc(-c5ccccc5)c4F)cc(=O)c3c2)CC1,> 10000
22,Cc1c(COc2ccc3cc(CNC(C)(C)C(=O)O)ccc3c2)cccc1-c1ccc2c(c1)OCCO2,> 10000
23,Cc1c(COc2cc(OCc3cccc(C#N)c3)c(CNCCN)cc2Cl)cccc1-c1ccc2c(c1)OCCO2,> 100
24,Cc1c(COc2cc(OCc3cccc(C#N)c3)c(CNCCO)cc2Cl)cccc1-c1ccncc1,> 100
25,Cc1c(COc2cc(OCc3cccc(C#N)c3)c(CN3CCN(CC4CC4)CC3)cc2Cl)cccc1-c1ccc2c(c1)OCCO2,> 1000
26,Cc1c(COc2cc(OCc3cccc(C#N)c3)c(CNCCNC(=O)OC(C)(C)C)cc2Cl)cccc1-c1ccc2c(c1)OCCO2,55.9

row,SMILES,IC50 [nM]
1,CC(=O)N1CCN(Cc2ccc3oc(-c4cccc(-c5ccc6c(c5)OCCO6)c4C)cc(=O)c3c2)CC1,> 10000
2,Cc1c(COc2cc(OCc3cccc(C#N)c3)c(CN3CCCC[C@H]3C(=O)O)cc2Cl)cccc1-c1ccncc1,> 100
3,Cc1c(COc2cc(OCc3cccc(C#N)c3)c(CN3CCCC[C@H]3C(=O)O)cc2Cl)cccc1-c1cncnc1,> 100
4,Cc1c(COc2cc(OCc3cccc(C#N)c3)c(CN3CCCC[C@H]3C(=O)O)cc2Cl)cccc1-c1cccnc1,> 100
5,Cc1c(COc2ccc3cc(CN4C[C@@H](O)C[C@H]4C(=O)O)ccc3c2)cccc1-c1ccccc1,> 10000
6,O=c1cc(-c2ccc(O)cc2)oc2cc(O[C@@H]3O[C@H](CO)[C@@H](O)[C@H](O)[C@H]3O[C@@H]3OC[C@](O)(CO)[C@H]3O)cc(O)c12 [APIIN],> 100000
7,Cc1c(COc2cc(OCc3cccc(C#N)c3)c(CN3C[C@H](O)[C@@H](F)C3)cc2Cl)cccc1-c1ccc2c(c1)OCCO2,> 100
8,Cc1c(COc2cc(OCc3cccc(C#N)c3)c(/C=N/C(CS)C(=O)O)cc2Cl)cccc1-c1ccccc1 (stereo unspecified),> 100
9,Cc1c(/C=C/C(=O)c2cc(CN3CCNCC3)ccc2O)cccc1-c1ccccc1,> 20000
10,Cc1c(COc2cc(OCc3cccc(C#N)c3)c(CN3CC(C)(O)C3)cc2Cl)cccc1-c1ccccc1,> 100
11,Cc1c(COc2cc(OCc3cccc(C#N)c3)c(CN3CC(C(=O)O)C3)cc2Cl)cccc1-c1ccccc1,31.2
12,Cc1c(COc2cc(OCc3cccc(C#N)c3)c(CNC(C)(C)C(=O)O)cc2Cl)cccc1-c1cccnc1,10 to 100
13,CC(=O)N1CCN(Cc2ccc(O)c(C(=O)/C=C/c3cccc(-c4ccccc4)c3F)c2)CC1,> 20000
14,Cc1c(-c2ccccc2)cccc1-c1cc(=O)c2cc(CN3CCNCC3)ccc2o1,> 10000
15,Cc1c(COc2cc(OCc3cccc(C#N)c3)c(CN3CCN(C(C)C)CC3)cc2Cl)cccc1-c1ccc2c(c1)OCCO2,> 1000
16,Cc1c(COc2cc(OCc3cccc(C#N)c3)c(CN3CC[C@@H](C(=O)O)C3)cc2Cl)cccc1-c1ccccc1,10 to 100
17,Cc1c(COc2cc(OCc3cccc(C#N)c3)c(CN3CC[C@@H](O)C3)cc2Cl)cccc1-c1ccccc1,10 to 100
18,Cc1c(COc2cc(OCc3cccc(C#N)c3)c(CN[C@@H](C(=O)O)[C@H](C)O)cc2Cl)cccc1-c1ccncc1,> 100
19,Cc1c(COc2cc(OCc3cccc(C#N)c3)c(CNCC(=O)O)cc2Cl)cccc1-c1ccccc1,10 to 100
20,CC(=O)N1CCN(Cc2ccc3oc(-c4cccc(-c5ccccc5)c4C)cc(=O)c3c2)CC1,> 10000
21,Cc1c(/C=C/C(=O)c2cc(CN3CCN(c4cccc([N+](=O)[O-])c4)CC3)ccc2O)cccc1-c1ccc2c(c1)OCCO2,19300
22,COc1cc2c(c(O)c1CC=C(C)C)C(=O)C[C@@H](c1ccc(O)cc1)O2,96600
23,Cc1c(COc2cc(OCc3cccc(C#N)c3)c(CNCC(=O)O)cc2Cl)cccc1-c1ccc2c(c1)OCCO2,> 100
24,CC(=O)NCCNCc1ccc(O)c(C(=O)/C=C/c2cccc(-c3ccccc3)c2C)c1,5300
25,Cc1c(COc2cc(OCc3cccc(C#N)c3)c(CN[C@@H](C(=O)O)[C@H](C)O)cc2Cl)cccc1-c1ccccc1,8.5
26,Cc1c(COc2cc(OCc3cccc(C#N)c3)c(CN[C@H](CO)C(=O)O)cc2Cl)cccc1-c1ccncc1,> 100

# System: MCF7
# Experiment: Cytotoxicity against human MCF7 cells assessed as reduction in cell viability measured after 48 hrs by MTT assay
# Type: functional, cell-based
# Conditions: MCF7, 48 h
row,SMILES,IC50 [nM]
1,Cc1c(COc2cc(OCc3cccc(C#N)c3)c(CN3C[C@@H](O)C[C@@H]3CO)cc2Cl)cccc1-c1ccc2c(c1)OCCO2,6600
